Laboratory results from paper PMC5989226 (Nature Communications, 2018).

What was measured:
Type in all cases: binding
[1] = molecular target: T1, DELAY OF GERMINATION1 (DOG1) (Arabidopsis thaliana, UniProt A0SVK0, H245A); assay: UV-visible absorption hemin titration ([…] nm)
T1 construct: full-length, N-terminal His6-tagged

[2] = molecular target: T2, DELAY OF GERMINATION1 (DOG1) (Arabidopsis thaliana, UniProt A0SVK0); assay: UV-visible absorption titration of apo-DOG1 with hemin (Soret peak, […] nm), […] fit
T2 sequence (A0SVK0 1-291): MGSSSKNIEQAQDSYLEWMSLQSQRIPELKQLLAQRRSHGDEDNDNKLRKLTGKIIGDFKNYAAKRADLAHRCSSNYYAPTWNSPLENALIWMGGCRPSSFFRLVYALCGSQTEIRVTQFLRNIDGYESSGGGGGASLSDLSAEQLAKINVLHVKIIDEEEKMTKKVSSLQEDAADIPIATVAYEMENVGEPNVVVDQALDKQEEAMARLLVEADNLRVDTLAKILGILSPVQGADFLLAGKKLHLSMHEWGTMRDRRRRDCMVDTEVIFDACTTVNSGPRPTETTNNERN

[3] = molecular target: T3, DELAY OF GERMINATION1 (DOG1) (Arabidopsis thaliana, UniProt A0SVK0, H245A/H249A); assay: UV-visible absorption hemin titration ([…] nm)
T3 construct: full-length, N-terminal His6-tagged
T3 sequence (A0SVK0 whole entry H245A/H249A): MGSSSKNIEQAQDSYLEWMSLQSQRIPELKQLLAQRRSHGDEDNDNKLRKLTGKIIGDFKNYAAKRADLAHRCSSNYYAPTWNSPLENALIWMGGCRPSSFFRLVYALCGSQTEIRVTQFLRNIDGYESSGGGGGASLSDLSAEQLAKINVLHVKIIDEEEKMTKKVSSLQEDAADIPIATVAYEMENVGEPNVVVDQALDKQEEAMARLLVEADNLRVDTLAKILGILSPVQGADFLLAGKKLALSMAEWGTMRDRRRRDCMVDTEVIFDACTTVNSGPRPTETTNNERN

T1 sequence (A0SVK0 whole entry H245A): as the sequence (A0SVK0 whole entry H245A/H249A) above, with A249H counted along it

C=CC1=C(C)C2=Cc3c(C=C)c(C)c4[n]3[Fe]([Cl])[n]3c(c(C)c(CCC(=O)O)c3=CC3=NC(=C4)C(C)=C3CCC(=O)O)=CC1=N2 [hemin]
Kd [1]: 129 nM
Kd [2]: 59 nM
Kd [3]: 918 nM
